# Measurements as given in publication PMC9643456, “Matching amino acids membrane preference profile to improve activity of antimicrobial peptides” (Communications Biology, 2022).
# Square brackets hold non-standard residues; d marks the D form. Ends that are not written are not given here. Peptide text beside a SMILES is read from it. Trp(5-OH) = N[C@@H](Cc1c[nH]c2ccc(O)cc12)C(=O)O
# Key:
# MDR S. aureus = test: microbe, parasite or virus in culture; conditions: CLSI broth microdilution; CAMHB with 50 mg/L Ca2+, 10 mg/L Mg2+; 5 × 10^5 CFU/ml; 18 h 37 °C; triplicate; strain KCCM 40510
# Description: (§1) MDR Pseudomonas aeruginosa (CCARM 2180) was purchased from the Culture Collection of Antimicrobial Resistance Microbes (Seoul, Republic of Korea). MDR Acinetobacter baumannii (ATCC BAA-1605) and MDR Enterococcus faecalis (ATCC 51575) were purchased from the American Type Culture Collection (Manassas, VA, USA). MDR Staphylococcus aureus (KCCM 40510) was purchased from the Korean Culture Center of Microorganisms (Seoul, Republic of Korea). S. aureus (KCTC 1621) was purchased from the Korean Collection for Type Cultures. A. baumannii (KCCM 40203) was purchased from the Korean Culture Center of Microorganisms (Seoul, Republic of Korea).
# (§2) To assess antimicrobial activity, the MIC50 and MIC90 were measured using broth microdilution following CLSI guidelines. […] Each experiment was performed in triplicate. Meropenem (Sigma, Darmstadt, Germany) and colistin were used as control antibiotics. Cation-adjusted Mueller–Hinton broth (CAMHB) (Becton, Dickinson and Company, Franklin Lakes, USA) with supplied calcium (50 mg/L) and magnesium (10 mg/L) was used for the CLSI-test condition. Bacteria in midlog phase and peptides were separately diluted in CAMHB. The bacteria and peptide solutions were then mixed in 96-well polyethylene plates (SPL, Gyeonggi-do, Korea) and incubated for 18 h at 37 °C. The final concentration for bacteria was 5 × 10^5 CFU/ml. […] The MIC was defined to be the lowest concentration of peptide without visible turbidity by comparing with control antibiotics with the unaided eye. […] Each experiment was performed in triplicate. MICs in albumin and acetic acid solutions were measured using the same protocol but with 0.2% bovine serum albumin (Bovogen, Keilor, Australia), 0.01% acetic acid (Merck, New Jersey, USA), and CAMHB with both calcium and magnesium. In addition, MICs used in the antibiotic resistance acquisition test, the outer–inner membrane permeation test, and the transmembrane potential test and for FE-SEM were individually determined. The final bacterial concentrations used were as follows: for resistance acquisition, optical density (OD) 0.01; for outer–inner membrane permeability assays (LB), OD 0.1; for the transmembrane potential test, 1 × 10^8 CFU/ml (OD 0.171); […]. Inhibitory activity unidentifiable by direct observation was determined by counting the CFUs. Each experiment was performed at least twice.
# MDR P. aeruginosa = test: microbe, parasite or virus in culture; conditions: CLSI broth microdilution; CAMHB with 50 mg/L Ca2+, 10 mg/L Mg2+; 5 × 10^5 CFU/ml; 18 h 37 °C; no visible turbidity; triplicate; strain CCARM 2180
# Description: as §1, §2
# MDR A. baumannii = test: microbe, parasite or virus in culture; conditions: CLSI broth microdilution; CAMHB with 50 mg/L Ca2+, 10 mg/L Mg2+; 5 × 10^5 CFU/ml; 18 h 37 °C; triplicate; strain ATCC BAA-1605
# Description: as §1, §2
# MDR E. faecalis = test: microbe, parasite or virus in culture; conditions: CLSI broth microdilution; CAMHB with 50 mg/L Ca2+, 10 mg/L Mg2+; 5 × 10^5 CFU/ml; 18 h 37 °C; triplicate; strain ATCC 51575
# Description: as §1, §2
# human red blood cells = test: Hemolytic activity; assay type: cell-based; conditions: red cells of human, 18 h
# Description: Human red blood cells (Zenbio, North Carolina, USA) and peptides were separately diluted in PBS (blood concentration, 8%). The blood cell and peptide solutions were then mixed in 96-well polyethylene plates (SPL, Gyeonggi-do, Korea) and incubated for 18 h at 37 °C. The final concentration of human red blood cells was 4%, while peptide concentrations were 100 μM, 50 μM, 25 μM, 12.5 μM, 6.25 μM, 3.13 μM, 1.56 μM, and 0.78 μM. After incubation, the plates were centrifuged at 1000 × g for 5 min, and the supernatants were transferred to 96-well polyethylene plates. Hemolysis levels were determined by measuring the absorbance at 540 nm with a SpectraMax plate spectrophotometer (Molecular Devices, California, USA). Control samples were treated with 1% Triton X-100 (for 100% hemolysis) or solution with 0 μM peptide (for 0% hemolysis) and melittin (for positive control). Each experiment was performed in triplicate.
compound,measurement,setting,value
WLLWIALRKK-NH2 [WCopW],"Minimum inhibitory concentrations, MDR S. aureus",MDR S. aureus,5 µM
same,"Minimum inhibitory concentrations, MDR P. aeruginosa",MDR P. aeruginosa,> 20 µM
same,"Minimum inhibitory concentrations, MDR A. baumannii",MDR A. baumannii,5 µM
same,"Minimum inhibitory concentrations, MDR E. faecalis",MDR E. faecalis,10 µM
CC[C@@H](C)[C@@H](NC(=O)[C@@H](Cc1c[nH]c2ccccc12)NC(=O)[C@@H](Cc1ccc(O)cc1)NC(=O)[C@@H](CC(C)C)NC(=O)[C@H](N)Cc1c[nH]c2ccccc12)C(=O)NCC(=O)N[C@H](CC(C)C)C(=O)N[C@H](CCCNC(=N)N)C(=O)N[C@H](CCCCN)C(=O)N[C@H](CCCCN)C(=O)N[C@H](CCCNC(=N)N)C(N)=O [WCopWY] (H-[dW][dL][dY][dW][dI]G[dL][dR][dK][dK][dR]-NH2),"Minimum inhibitory concentrations, MDR S. aureus",MDR S. aureus,10 µM
same,"Minimum inhibitory concentrations, MDR P. aeruginosa",MDR P. aeruginosa,20 µM
same,"Minimum inhibitory concentrations, MDR A. baumannii",MDR A. baumannii,1.25 µM
same,"Minimum inhibitory concentrations, MDR E. faecalis",MDR E. faecalis,2.5 µM
CC[C@@H](C)[C@@H](NC(=O)[C@H](N)Cc1c[nH]c2ccccc12)C(=O)N[C@@H](C(=O)N[C@H](Cc1c[nH]c2ccccc12)C(=O)N[C@@H](C(=O)N[C@H](Cc1c[nH]c2ccccc12)C(=O)N[C@H](CCCNC(=N)N)C(=O)N[C@H](CCCNC(=N)N)C(=O)N[C@H](CCCNC(=N)N)C(N)=O)[C@H](C)CC)[C@H](C)CC [WCopW61] (H-[dW][dI][dI][dW][dI][dW][dR][dR][dR]-NH2),"Minimum inhibitory concentrations, MDR S. aureus",MDR S. aureus,0.63 µM
same,"Minimum inhibitory concentrations, MDR P. aeruginosa",MDR P. aeruginosa,5 µM
same,"Minimum inhibitory concentrations, MDR A. baumannii",MDR A. baumannii,1.25 µM
same,"Hemolysis percent, 25 μM",human red blood cells,6.90 ± 0.03%
same,"Hemolysis percent, 50 μM",human red blood cells,8.91 ± 0.75%
same,"Hemolysis percent, 100 μM",human red blood cells,11.6 ±0.99%
CC[C@@H](C)[C@@H](NC(=O)[C@@H](Cc1c[nH]c2ccccc12)NC(=O)[C@@H](CCCNC(=N)N)NC(=O)[C@@H](CCCNC(=N)N)NC(=O)[C@H](N)CCCNC(=N)N)C(=O)N[C@H](Cc1c[nH]c2ccccc12)C(=O)N[C@@H](C(=O)N[C@@H](C(=O)N[C@H](Cc1c[nH]c2ccccc12)C(N)=O)[C@H](C)CC)[C@H](C)CC [WCopW60] (H-[dR][dR][dR][dW][dI][dW][dI][dI][dW]-NH2),"Minimum inhibitory concentrations, MDR S. aureus",MDR S. aureus,0.63 µM
same,"Minimum inhibitory concentrations, MDR P. aeruginosa",MDR P. aeruginosa,5 µM
same,"Minimum inhibitory concentrations, MDR A. baumannii",MDR A. baumannii,1.25 µM
same,"Hemolysis percent, 25 μM",human red blood cells,15.51 ± 0.64%
same,"Hemolysis percent, 50 μM",human red blood cells,15.14 ± 3.22%
same,"Hemolysis percent, 100 μM",human red blood cells,15.17 ± 0.19%
CC[C@@H](C)[C@@H](NC(=O)[C@@H](Cc1c[nH]c2ccccc12)NC(=O)[C@@H](Cc1ccccc1)NC(=O)[C@@H](CC(C)C)NC(=O)[C@H](N)Cc1c[nH]c2ccccc12)C(=O)NCC(=O)N[C@H](CC(C)C)C(=O)N[C@H](CCCNC(=N)N)C(=O)N[C@H](CCCCN)C(=O)N[C@H](CCCCN)C(=O)N[C@H](CCCNC(=N)N)C(N)=O [WCopWF] (H-[dW][dL][dF][dW][dI]G[dL][dR][dK][dK][dR]-NH2),"Minimum inhibitory concentrations, MDR S. aureus",MDR S. aureus,2.5 µM
same,"Minimum inhibitory concentrations, MDR P. aeruginosa",MDR P. aeruginosa,10 µM
same,"Minimum inhibitory concentrations, MDR A. baumannii",MDR A. baumannii,1.25 µM
same,"Minimum inhibitory concentrations, MDR E. faecalis",MDR E. faecalis,2.5 µM
CC[C@H](C)[C@H](NC(=O)[C@H](Cc1c[nH]c2ccc(O)cc12)NC(=O)[C@H](CC(C)C)NC(=O)[C@H](CC(C)C)NC(=O)[C@@H](N)Cc1c[nH]c2ccc(O)cc12)C(=O)N[C@@H](C)C(=O)N[C@@H](CC(C)C)C(=O)N[C@@H](CCCNC(=N)N)C(=O)N[C@@H](CCCCN)C(=O)N[C@@H](CCCCN)C(N)=O [WhCopW] (H-[Trp(5-OH)]LL[Trp(5-OH)]IALRKK-NH2),"Minimum inhibitory concentrations, MDR S. aureus",MDR S. aureus,5 µM
same,"Minimum inhibitory concentrations, MDR P. aeruginosa",MDR P. aeruginosa,> 20 µM
same,"Minimum inhibitory concentrations, MDR A. baumannii",MDR A. baumannii,> 20 µM
same,"Minimum inhibitory concentrations, MDR E. faecalis",MDR E. faecalis,> 20 µM
CC[C@@H](C)[C@@H](NC(=O)[C@@H](Cc1c[nH]c2ccccc12)NC(=O)[C@H](NC(=O)[C@@H](CC(C)C)NC(=O)[C@@H](Cc1c[nH]c2ccccc12)NC(=O)[C@H](N)CCCCN)C(C)C)C(=O)N[C@H](Cc1c[nH]c2ccccc12)C(=O)N[C@H](CCCNC(=N)N)C(=O)N[C@H](CCCNC(=N)N)C(=O)N[C@H](CCCNC(=N)N)C(N)=O [WCopW35] (H-[dK][dW][dL][dV][dW][dI][dW][dR][dR][dR]-NH2),"Minimum inhibitory concentrations, MDR S. aureus",MDR S. aureus,0.63 µM
same,"Minimum inhibitory concentrations, MDR P. aeruginosa",MDR P. aeruginosa,2.5 µM
same,"Minimum inhibitory concentrations, MDR A. baumannii",MDR A. baumannii,0.63 µM
same,"Hemolysis percent, 25 μM",human red blood cells,1.18 ±0.34%
same,"Hemolysis percent, 50 μM",human red blood cells,2.71 ±0.63%
same,"Hemolysis percent, 100 μM",human red blood cells,6.07 ±1.01%
CC[C@@H](C)[C@@H](NC(=O)[C@@H](Cc1c[nH]c2ccccc12)NC(=O)[C@H](NC(=O)[C@@H](CC(C)C)NC(=O)[C@H](N)Cc1c[nH]c2ccccc12)C(C)C)C(=O)N[C@H](Cc1c[nH]c2ccccc12)C(=O)N[C@H](CCCNC(=N)N)C(=O)N[C@H](CCCNC(=N)N)C(N)=O [WCopW32] (H-[dW][dL][dV][dW][dI][dW][dR][dR]-NH2),"Minimum inhibitory concentrations, MDR S. aureus",MDR S. aureus,0.63 µM
same,"Minimum inhibitory concentrations, MDR A. baumannii",MDR A. baumannii,2.5 µM
same,"Minimum inhibitory concentrations, MDR E. faecalis",MDR E. faecalis,0.63 µM
same,"Hemolysis percent, 25 μM",human red blood cells,1.66 ± 0.11%
same,"Hemolysis percent, 50 μM",human red blood cells,2.95 ± 0.21%
same,"Hemolysis percent, 100 μM",human red blood cells,4.53 ±0.01%
CC[C@@H](C)[C@@H](NC(=O)[C@@H](Cc1c[nH]c2ccccc12)NC(=O)[C@@H](CC(C)C)NC(=O)[C@H](N)Cc1c[nH]c2ccccc12)C(=O)N[C@H](Cc1c[nH]c2ccccc12)C(=O)N[C@H](CCCNC(=N)N)C(=O)N[C@H](CCCNC(=N)N)C(=O)N[C@H](CCCNC(=N)N)C(N)=O [WCopW41] (H-[dW][dL][dW][dI][dW][dR][dR][dR]-NH2),"Minimum inhibitory concentrations, MDR A. baumannii",MDR A. baumannii,2.5 µM
same,"Minimum inhibitory concentrations, MDR E. faecalis",MDR E. faecalis,1.25 µM
same,"Hemolysis percent, 25 μM",human red blood cells,0.01 ±0.01%
same,"Hemolysis percent, 50 μM",human red blood cells,0.04 ± 0.02%
same,"Hemolysis percent, 100 μM",human red blood cells,0.42 ±0.06%
CC[C@@H](C)[C@@H](NC(=O)[C@@H](Cc1c[nH]c2ccccc12)NC(=O)[C@@H](CCCNC(=N)N)NC(=O)[C@H](N)CCCNC(=N)N)C(=O)N[C@H](Cc1c[nH]c2ccccc12)C(=O)N[C@@H](C(=O)N[C@@H](C(=O)N[C@H](Cc1c[nH]c2ccccc12)C(=O)N[C@H](CCCNC(=N)N)C(N)=O)[C@H](C)CC)C(C)C [WCopW54] (H-[dR][dR][dW][dI][dW][dV][dI][dW][dR]-NH2),"Minimum inhibitory concentrations, MDR S. aureus",MDR S. aureus,0.63 µM
same,"Minimum inhibitory concentrations, MDR P. aeruginosa",MDR P. aeruginosa,2.5 µM
same,"Minimum inhibitory concentrations, MDR A. baumannii",MDR A. baumannii,0.63 µM
same,"Hemolysis percent, 25 μM",human red blood cells,8.38 ± 1.14%
same,"Hemolysis percent, 50 μM",human red blood cells,11.43 ± 2.42%
same,"Hemolysis percent, 100 μM",human red blood cells,35.13 ± 4.13%
